From ChEMBL document CHEMBL4665856, “Design and synthesis of new disubstituted benzoxazolone derivatives that act as iNOS inhibitors with potent anti-inflammatory activity against LPS-induced acute lung injury (ALI)” (Bioorg Med Chem, 2020)
Calls of active or inactive are those of the source. The calls are words filed in the database; no cut-off is given here.

Legend:
RAW264.7 [1] = test: Antiinflammatory activity in mouse RAW264.7 cells assessed as reduction in LPS-induced IL-1 beta production at 12.5 uM measured after 24 hrs by ELISA; assay type: functional, cell-based
RAW264.7 [2] = test: Anti-inflammatory activity in mouse RAW264.7 cells assessed as inhibition of LPS-induced nitric oxide synthase production measured after 24 hrs by ELISA; assay type: functional, cell-based; details: RAW264.7, 24 h
RAW264.7 [3] = test: Antiinflammatory activity in mouse RAW264.7 cells assessed as reduction in LPS-induced TNF-alpha production at 12.5 uM measured after 24 hrs by ELISA; assay type: functional, cell-based
Mus musculus [4] = test: Anti-inflammatory activity in Kunming mouse assessed as inhibition of xylene-induced ear edema at 12.5 mg/kg, po dosed 1 hr prior to xylene challenge and measured at 30 mins post xylene injection relative to control; assay type: functional; details: 1.5 h, time 90 min
RAW264.7 [5] = test: Antiinflammatory activity in mouse RAW264.7 cells assessed as reduction in LPS-induced IL-6 production at 12.5 uM measured after 24 hrs by ELISA; assay type: functional, cell-based
RAW264.7 [6] = test: Anti-inflammatory activity in mouse RAW264.7 cells assessed as reduction in LPS-induced iNOS mRNA expression at 12.5 uM by RT-PCR analysis; assay type: functional, cell-based
RAW264.7 [7] = test: Cytotoxicity against mouse RAW 264.7 cells assessed as reduction in cell proliferation at 25 uM by MTT assay; assay type: cell-based; details: raw264.7, 25 µM
Mus musculus [8] = test: (§1) Anti-inflammatory activity against LPS-induced ALI Kunming mouse model assessed as reduction in iNOS level in serum at 3.125 to 12.5 mg/kg, po administered 4 hrs prior to LPS instillation and measured at 12 hrs post-LPS instillation by ELISA; assay type: functional, organism-based; details: dose mg/kg 3.125-12.5, time 16.0 hrs
Mus musculus [9] = test: Anti-inflammatory activity against LPS-induced ALI Kunming mouse model assessed as reduction in IL-6 level in serum at 3.125 to 12.5 mg/kg, po administered 4 hrs prior to LPS instillation and measured at 12 hrs post-LPS instillation by ELISA; assay type: functional, organism-based; details: dose mg/kg 3.125-12.5, time 16.0 hrs
Mus musculus [10] = test: Anti-inflammatory activity against LPS-induced ALI Kunming mouse model assessed as reduction in IL-1 beta level in serum at 3.125 to 12.5 mg/kg, po administered 4 hrs prior to LPS instillation and measured at 12 hrs post-LPS instillation by ELISA; assay type: functional, organism-based; details: dose mg/kg 3.125-12.5, time 16.0 hrs
[11] = target: T1, Nitric oxide synthase, inducible (Mus musculus, UniProt P29477); test: Inhibition of iNOS in mouse RAW264.7 cells assessed as inhibition of LPS-induced nitric oxide overproduction incubated for 24 hrs by Griess assay; assay type: cell-based
T1 sequence (P29477 whole entry): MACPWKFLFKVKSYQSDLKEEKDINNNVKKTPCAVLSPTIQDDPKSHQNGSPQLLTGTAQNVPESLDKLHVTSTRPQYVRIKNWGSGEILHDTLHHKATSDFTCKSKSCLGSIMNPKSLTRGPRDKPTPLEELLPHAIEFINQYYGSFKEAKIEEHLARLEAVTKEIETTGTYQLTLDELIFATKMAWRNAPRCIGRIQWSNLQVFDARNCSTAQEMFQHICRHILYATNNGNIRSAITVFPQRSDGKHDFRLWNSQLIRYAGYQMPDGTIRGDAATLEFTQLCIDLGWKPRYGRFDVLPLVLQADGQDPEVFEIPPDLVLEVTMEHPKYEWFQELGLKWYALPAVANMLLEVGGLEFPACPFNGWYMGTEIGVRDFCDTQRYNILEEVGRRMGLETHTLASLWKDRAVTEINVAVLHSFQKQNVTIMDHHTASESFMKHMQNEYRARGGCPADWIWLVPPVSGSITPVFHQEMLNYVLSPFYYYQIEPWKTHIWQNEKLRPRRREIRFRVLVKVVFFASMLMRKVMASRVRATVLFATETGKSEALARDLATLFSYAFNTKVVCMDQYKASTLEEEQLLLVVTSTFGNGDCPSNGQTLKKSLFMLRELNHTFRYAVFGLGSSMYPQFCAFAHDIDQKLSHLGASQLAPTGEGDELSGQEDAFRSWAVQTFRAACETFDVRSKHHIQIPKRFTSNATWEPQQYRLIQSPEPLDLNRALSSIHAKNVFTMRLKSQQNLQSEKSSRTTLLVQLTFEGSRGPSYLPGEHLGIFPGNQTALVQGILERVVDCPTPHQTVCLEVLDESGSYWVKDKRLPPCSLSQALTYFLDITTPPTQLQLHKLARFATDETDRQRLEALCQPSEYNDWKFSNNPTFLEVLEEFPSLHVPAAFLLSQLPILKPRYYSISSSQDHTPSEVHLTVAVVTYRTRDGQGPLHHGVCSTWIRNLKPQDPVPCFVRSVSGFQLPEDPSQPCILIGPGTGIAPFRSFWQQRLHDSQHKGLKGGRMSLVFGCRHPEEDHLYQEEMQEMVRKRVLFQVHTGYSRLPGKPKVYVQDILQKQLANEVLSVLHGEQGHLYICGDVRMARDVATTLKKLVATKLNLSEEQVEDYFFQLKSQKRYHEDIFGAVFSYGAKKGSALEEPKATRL

Mus musculus [12] = test: Anti-inflammatory activity against LPS-induced ALI Kunming mouse model assessed as reduction in TNF-alpha level in serum at 3.125 to 12.5 mg/kg, po administered 4 hrs prior to LPS instillation and measured at 12 hrs post-LPS instillation by ELISA; assay type: functional, organism-based; details: dose mg/kg 3.125-12.5, time 16.0 hrs
Mus musculus [13] = test: as §1, with “inflammatory infiltration” for “iNOS level”, “lungs and pulmonary congestion” for “serum”, “hematoxylin-eosin staining based analysis” for “ELISA”; assay type: functional, organism-based; details: dose mg/kg 3.125-12.5, time 16.0 hrs
Mus musculus [14] = test: Anti-inflammatory activity against LPS-induced ALI Kunming mouse model assessed as reduction in iNOS expression in lung at 3.125 to 12.5 mg/kg, po administered 4 hrs prior to LPS instillation and measured at 12 hrs post-LPS instillation by immunohistochemistry; assay type: functional, organism-based; details: dose mg/kg 3.125-12.5, time 16.0 hrs
Mus musculus [15] = test: Anti-inflammatory activity against LPS-induced ALI Kunming mouse model assessed as reduction in neutrophil infiltration in lungs by measuring decrease in MPO activity at 3.125 to 12.5 mg/kg, po administered 4 hrs prior to LPS instillation and measured at 12 hrs post-LPS instillation; assay type: functional, organism-based; details: dose mg/kg 3.125-12.5, time 16.0 hrs
Mus musculus [16] = test: Anti-inflammatory activity against LPS-induced ALI Kunming mouse model assessed as reduction in lung edema by measuring reduction in lung wet-to-dry ratio at 3.125 to 12.5 mg/kg, po administered 4 hrs prior to LPS instillation and measured at 12 hrs post-LPS instillation; assay type: functional, organism-based; details: dose mg/kg 3.125-12.5, time 16.0 hrs
Mus musculus [17] = species on record: Mus musculus; details: Kunming, dose 12.5 mg/kg, time 90.0 min

Structure (SMILES)	Activity (RAW264.7 [1])	IC50 (RAW264.7 [2])	Activity (RAW264.7 [3])	inhibition in vivo at 12.5 mg/kg (Mus musculus [4])	Activity (RAW264.7 [5])	Activity (RAW264.7 [7])	IC50 [11]	further results
CN(C)c1cccc2c(S(=O)(=O)Oc3cccc4oc(=O)n(CCc5ccccc5)c34)cccc12	Active	3.34 µM	Active	> 50%	Active	Non-Toxic	14.7 µM	Activity (RAW264.7 [6]): Active; Activity (Mus musculus [8]): Dose-dependent effect; Activity (Mus musculus [9]): Dose-dependent effect; Activity (Mus musculus [10]): Dose-dependent effect; Activity (Mus musculus [12]): Dose-dependent effect; Activity (Mus musculus [13]): Dose-dependent effect; Activity (Mus musculus [14]): Dose-dependent effect; Activity (Mus musculus [15]): Dose-dependent effect; Activity (Mus musculus [16]): Dose-dependent effect
CN(C)c1cccc2c(S(=O)(=O)Oc3cccc4oc(=O)n(Cc5ccccc5)c34)cccc12	Active	4.61 µM	Active	> 50%	Active	Non-Toxic	16.4 µM	
Cn1cnc(S(=O)(=O)Oc2cccc3oc(=O)n(Cc4ccccc4)c23)c1	Active		Active	> 50%	Active	Non-Toxic		
Cc1ccc(Cn2c(=O)oc3cccc(OS(=O)(=O)c4cn(C)cn4)c32)cc1						Non-Toxic		
Cc1ccccc1S(=O)(=O)Oc1cccc2oc(=O)n(CCc3ccccc3)c12						Non-Toxic		
N=C(NCCC[C@H](N)C(=O)O)N[N+](=O)[O-] [NITROARGININE]		2.92 µM					27.6 µM	inhibition (Mus musculus [17]): Active
Cn1cnc(S(=O)(=O)Oc2cccc3oc(=O)n(Cc4ccc([N+](=O)[O-])cc4)c23)c1						Non-Toxic		
Cn1cnc(S(=O)(=O)Oc2cccc3oc(=O)n(CCc4ccccc4)c23)c1	Active	9.73 µM	Active	> 50%	Active	Non-Toxic	13.4 µM	
